We go through four compounds from patent publication US5023340A, “Pyrrolizioines and synthesis thereof” (Monsanto Company, priority 1989, dated 1991).

One test relates to amyloglucosidase. To be noted: literature (Nash et al.); cited from earlier work.
The test system of test [1] is lysosomal α-mannosidase. To be noted: literature; cited from earlier work.
For test [2], the system named is processing forms of α-mannosidase. To be noted: literature; cited from earlier work.
Test [3] addresses T1, lysosomal α-mannosidase (Homo sapiens, UniProt O00754).
T1 construct: from tissue; host or cells: human liver
T1 sequence (O00754 50-601 limits assumed): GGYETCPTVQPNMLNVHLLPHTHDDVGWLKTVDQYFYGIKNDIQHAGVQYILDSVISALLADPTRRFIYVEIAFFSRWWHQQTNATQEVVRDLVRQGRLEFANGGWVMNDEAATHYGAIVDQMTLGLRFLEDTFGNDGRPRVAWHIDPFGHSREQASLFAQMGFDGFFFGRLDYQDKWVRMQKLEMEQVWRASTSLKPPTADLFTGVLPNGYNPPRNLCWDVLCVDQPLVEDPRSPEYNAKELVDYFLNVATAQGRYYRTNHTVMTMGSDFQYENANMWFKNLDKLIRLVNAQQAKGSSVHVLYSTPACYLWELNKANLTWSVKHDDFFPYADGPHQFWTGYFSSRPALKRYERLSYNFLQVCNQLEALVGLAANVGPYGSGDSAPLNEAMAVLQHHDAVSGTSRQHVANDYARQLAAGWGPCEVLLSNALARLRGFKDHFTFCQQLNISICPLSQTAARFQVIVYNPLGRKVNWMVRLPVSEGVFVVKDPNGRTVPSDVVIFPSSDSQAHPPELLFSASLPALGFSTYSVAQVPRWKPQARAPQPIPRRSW
T1 sequence (O00754 602-882 limits assumed): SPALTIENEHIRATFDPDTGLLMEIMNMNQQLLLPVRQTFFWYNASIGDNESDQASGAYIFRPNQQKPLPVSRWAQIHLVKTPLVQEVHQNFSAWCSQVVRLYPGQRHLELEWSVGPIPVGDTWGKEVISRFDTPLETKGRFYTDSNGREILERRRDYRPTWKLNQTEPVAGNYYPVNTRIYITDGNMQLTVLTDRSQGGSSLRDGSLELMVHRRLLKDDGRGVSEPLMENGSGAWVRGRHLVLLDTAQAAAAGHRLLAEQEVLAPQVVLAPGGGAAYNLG
T1 sequence (O00754 883-1011 limits assumed): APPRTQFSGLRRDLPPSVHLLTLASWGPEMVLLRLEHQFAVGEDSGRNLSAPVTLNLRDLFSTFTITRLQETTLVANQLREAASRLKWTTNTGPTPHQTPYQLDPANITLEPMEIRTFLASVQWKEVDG
Nature of the test: inhibition of human liver glycosidases: lysosomal α-mannosidase. The test is classed as biochemical. An excerpt: (§1) The effects of the ring contracted swainsonines (3) and (4) on the inhibition of 14 human liver glycosidases was studied by the assay methods described in Palamarczyk et al., Arch. Biochem. Biophys. 243, 35 (1985); Daniel et al., Glycoconjugate J. 6, 229 (1989) and Cenci di Bello et al., Biochem. J. 259, 855 (1989). […] Chem. Commun.

Test [4] concerns the target green coffee bean α-galactosidase (Coffea arabica, UniProt Q42656). Nature of the test: inhibition of green coffee bean α-galactosidase. The format is biochemical.
The subject of the next test is glycosidases. The test can be described thus: inhibition of glycosidases (general statement). The test is classed as biochemical. As to conditions: compared with swainsonine.
Test [5] relates to neutral processing mannosidase. The test can be described thus: inhibition of human liver glycosidases: neutral processing mannosidase. The format is biochemical. To be noted: compared with swainsonine.
Text: as §1

For another test, the target named is T2, Jack bean α-mannosidase (Canavalia ensiformis, UniProt C0HJB3).
T2 sequence (C0HJB3 1-981): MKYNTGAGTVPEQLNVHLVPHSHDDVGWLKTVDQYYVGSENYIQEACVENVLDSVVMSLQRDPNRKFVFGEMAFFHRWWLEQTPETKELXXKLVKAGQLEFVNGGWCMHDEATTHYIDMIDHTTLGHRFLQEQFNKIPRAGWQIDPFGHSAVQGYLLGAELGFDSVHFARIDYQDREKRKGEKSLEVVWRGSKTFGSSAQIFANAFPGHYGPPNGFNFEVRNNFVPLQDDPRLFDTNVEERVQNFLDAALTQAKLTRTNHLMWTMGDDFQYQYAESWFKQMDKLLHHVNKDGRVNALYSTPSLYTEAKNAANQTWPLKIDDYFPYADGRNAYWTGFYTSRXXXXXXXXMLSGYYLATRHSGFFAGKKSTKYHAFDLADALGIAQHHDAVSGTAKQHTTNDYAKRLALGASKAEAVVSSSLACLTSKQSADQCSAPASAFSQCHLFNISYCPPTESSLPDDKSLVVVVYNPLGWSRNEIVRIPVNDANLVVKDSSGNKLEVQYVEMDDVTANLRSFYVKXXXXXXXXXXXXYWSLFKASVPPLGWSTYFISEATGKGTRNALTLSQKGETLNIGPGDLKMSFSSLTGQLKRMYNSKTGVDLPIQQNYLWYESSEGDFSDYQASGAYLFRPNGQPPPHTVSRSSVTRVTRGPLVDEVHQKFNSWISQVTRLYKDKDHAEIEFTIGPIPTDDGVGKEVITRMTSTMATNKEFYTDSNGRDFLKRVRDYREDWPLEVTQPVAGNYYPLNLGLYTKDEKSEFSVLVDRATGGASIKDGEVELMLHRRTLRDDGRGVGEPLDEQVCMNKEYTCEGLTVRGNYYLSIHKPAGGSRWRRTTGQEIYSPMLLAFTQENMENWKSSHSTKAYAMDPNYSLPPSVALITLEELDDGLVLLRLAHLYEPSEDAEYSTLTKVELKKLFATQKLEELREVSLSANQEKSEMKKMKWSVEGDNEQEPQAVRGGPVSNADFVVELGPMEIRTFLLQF
Nature of the test: inhibition of Jack bean α-mannosidase. The test is classed as biochemical.

The next test relates to bovine β-galactosidase. Nature of the test: inhibition of bovine β-galactosidase. The format is biochemical.
Test [6] concerns Aspergillus niger α-galactosidase. The test can be described thus: inhibition of Aspergillus niger α-galactosidase. The format is biochemical.
Test [7] concerns Golgi II processing mannosidase. The test can be described thus: inhibition of human liver glycosidases: Golgi II mannosidase. The test is classed as biochemical. To be noted: compared with swainsonine.
Text: as §1

A further test has as its system α-fucosidase. The test can be described thus: inhibition of human liver glycosidases: α-fucosidase. The format is biochemical. To be noted: 1 mM.
Text: as §1

The test system of another test is snail β-mannosidase. Nature of the test: inhibition of snail β-mannosidase. The test is classed as biochemical.
In test [8] the test system is broad specificity β-galactosidase/β-glucosidase. The test can be described thus: inhibition of human liver glycosidases: broad specificity β-galactosidase/β-glucosidase. The test is classed as biochemical.
Text: as §1

A further test has as its system bovine β-hexosaminidase. The test can be described thus: inhibition of bovine β-hexosaminidase. The format is biochemical.
The subject of test [9] is bovine kidney α-fucosidase. Nature of the test: inhibition of bovine kidney α-fucosidase. The test is classed as biochemical.
For a further test, the system named is β-galactosidase. Nature of the test: inhibition of human liver glycosidases: β-galactosidase. To be noted: 1 mM. The test is classed as biochemical.
Text: as §1

Another test concerns yeast α-glucosidase. Nature of the test: inhibition of yeast α-glucosidase. The format is biochemical.
The test system of the next test is almond β-glucosidase. The test can be described thus: inhibition of almond β-glucosidase. The test is classed as biochemical.
The test system of test [10] is human liver α-mannosidases. The test can be described thus: inhibition of human liver α-mannosidases. The format is biochemical.
Text: as §1

green coffee bean α-galactosidase, sequence (Q42656 16-378): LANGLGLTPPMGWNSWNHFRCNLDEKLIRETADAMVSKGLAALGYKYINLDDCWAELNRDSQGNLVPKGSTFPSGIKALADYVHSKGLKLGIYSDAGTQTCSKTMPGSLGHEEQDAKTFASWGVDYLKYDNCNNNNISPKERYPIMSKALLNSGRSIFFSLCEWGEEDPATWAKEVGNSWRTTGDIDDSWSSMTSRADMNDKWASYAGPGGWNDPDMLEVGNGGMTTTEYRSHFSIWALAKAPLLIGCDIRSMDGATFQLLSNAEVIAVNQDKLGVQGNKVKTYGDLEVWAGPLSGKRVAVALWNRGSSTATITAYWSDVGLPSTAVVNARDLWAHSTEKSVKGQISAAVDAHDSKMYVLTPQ

In the case of `OC[C@@H]1[C@@H](O)[C@@H](O)[C@H]2[C@@H](O)CCN21` [Compound 5, 1,7a-diepialexine], the amyloglucosidase inhibition entry in the test with amyloglucosidase is “powerful amyloglucosidase inhibitor”.

On to `O[C@H]1[C@H]2[C@H](O)CCCN2C[C@H]1O` [Compound 1, (1S,2R,8R,8aR)-1,2,8-Trihydroxyindolizidine], for which the “inhibition of lysosomal α-mannosidase” value with lysosomal α-mannosidase [1] is “potent and specific inhibitor”. Besides, in test [2], the “inhibition of some of the processing forms of α-mannosidase” value is “potent and specific inhibitor”. This compound returned an inhibition constant (Ki) at lysosomal α-mannosidase [3] (lysosomal α-mannosidase, comparator) of 0.07 µM.

For `O[C@H]1[C@H]2[C@H](O)CCN2C[C@H]1O` [Compound 3, (1S,2R,7R,7aR)-1,2,7-Trihydroxypyrrolizidine], the “inhibition of green coffee bean α-galactosidase” value in test [4] is “no significant inhibition”. Besides, in the test with glycosidases, the glycosidase inhibitory activity result was “weaker such activity than swainsonine”. The “inhibition of neutral processing mannosidase” value in [5] is reported as “less effective”. Affinity on Jack bean α-mannosidase was put at a Ki of 1700 µM. Further, the “inhibition of bovine β-galactosidase” value with bovine β-galactosidase was “no significant inhibition”. For the same compound, in test [6], the “inhibition of Aspergillus niger α-galactosidase” value was “no significant inhibition”. Moreover, the “inhibition of Golgi II processing mannosidase” value in test [7] is on record as “less effective”. The “inhibition of α-fucosidase” value in the test on α-fucosidase stood at 33%. Further, the “inhibition of snail β-mannosidase” value in the test on snail β-mannosidase was “no significant inhibition”. For the same compound, in test [8] (1 mM), the “inhibition of broad specificity β-galactosidase/β-glucosidase” value is listed as 25%. The “inhibition of bovine β-hexosaminidase” value in the test on bovine β-hexosaminidase was “no significant inhibition”. Besides, in test [9], the “inhibition of bovine kidney α-fucosidase” value is reported as “no significant inhibition”. Moreover, the “inhibition of β-galactosidase” value in the test on β-galactosidase came to 69%. Moreover, the IC50 on lysosomal α-mannosidase [3] (human liver lysosomal α-mannosidase, read-out: I50) was 1500 µM. Besides, the “inhibition of yeast α-glucosidase” value in the test on yeast α-glucosidase was “no significant inhibition”. Further, the “inhibition of almond β-glucosidase” value in the test with almond β-glucosidase is on record as “no significant inhibition”.

For `O[C@H]1[C@H]2[C@@H](O)CCN2C[C@H]1O` [Compound 4, (1S,2R,7S,7aR)-1,2,7-Trihydroxypyrrolizidine], the glycosidase inhibitory activity result in the test with glycosidases is reported as “weaker such activity than swainsonine”. Also, in test [8] (concentration not given), the “inhibition of broad specificity β-galactosidase/β-glucosidase” value was determined as 40%. The “inhibition of human liver α-mannosidases” value in [10] is “does not inhibit”.

The term Ki denotes the dissociation constant of the complex between target and ligand, obtained from inhibition or displacement. High values mean lower affinity, low ones higher affinity.
